Test results as given in patent publication US11253567B2, “Citrus seed extract-containing composition, food, drug, and method for producing citrus seed extract-containing composition” (Kikkoman Corporation, priority 2014, dated 2022).

Legend:
[1] = system: KKAy mice; test: Rearing experiment of KKAy mice: HbA1c level; type: in vivo; details: Experiment 5, FIG. 12; 0.035 mass % in AIN-93G feed; pair feeding
Protocol: (§1) KKAy mice at 3 weeks of age were purchased from CLEA Japan, Inc. as diabetes onset mode mice, and experimentally reared after preliminary rearing for 7 days. Herein, the conditions of rearing the mice were as follows. […]
(§2) AIN-93G was used for base experimental feed. […]
Note, the Yuzu seed extract used in Experiment 1 was prepared by heat-drying the Yuzu seeds at 100° C. for 720 min, subsequently grinding the dried Yuzu seeds so that the particle size (i.e., diameter) became about 1 mm or less, and performing extraction at an ambient temperature for 10 min using 10-fold volume of 100% ethanol to the ground Yuzu seeds. […]
(§3) After initiating the rearing experiment, blood was collected through a tail vain at the time from 9 am to 11 am at a day after the predetermined days passed. Then, the collected blood was analyzed by blood-glucose analyzers (HORIBA, Ltd. Antsence III and Bayer DCA2000) to measure a blood-glucose level and an HbA1c level. The measured blood-glucose and HbA1c levels were processed to calculate the mean value of each group.
Note, all the HbA1c levels thus measured and calculated in the experiment are represented by the JDS values. […]

[2] = system: KKAy mice; test: Rearing experiment of KKAy mice: blood-glucose level; type: in vivo; details: Experiment 5, FIG. 11; 0.035 mass % in AIN-93G feed; pair feeding; day 28
Protocol: as §1, §2
Note, the Yuzu seed extract used in Experiment 1 was prepared by heat-drying the Yuzu seeds at 100° C. for 720 min, subsequently grinding the dried Yuzu seeds so that the particle size (i.e., diameter) became about 1 mm or less, and performing extraction at an ambient temperature for 10 min using 10-fold volume of 100% ethanol to the ground Yuzu seeds.
In each of a control group (i.e., administered with AIN-93G alone including no other materials), a Yuzu seed extract (1% mass %) added group, a pioglitazone (0.03 mass %) added group, 10 mice were preliminarily reared for 7 days, and subsequently reared with the experimental feed totally for 28 days.
as §3, with “group. […]” for “group.”

CC1(C)OC(=O)C=C[C@]2(C)[C@H]3CC[C@@]4(C)[C@H](c5ccoc5)OC(=O)[C@H]5O[C@]54[C@]3(C)C(=O)C[C@@H]12 [obacunone, Obacunone]
HbA1c levels compared to control group [1]: lower than those of the control group
blood-glucose level lower than that of the control group (difference) [2]: about 50 mg/dl
